Data as given in patent US10596217B2, “Compositions containing a Withania somnifera extract incubated with a filamentous fungus of the Beauvaria genus” (Ethnodyne, priority 2015, dated 2020).
Where “and” joins values, the source holds several entries; their conditions need not be identical. Identical values can stand only once.

Assays:
Type in all cases: cell-based, rat
[1] = tested on: TH positive dopaminergic neurons of primary mesencephalic culture; assay: Neuroprotective effect on TH positive dopaminergic neuron survival following exposure to 6-OHDA; conditions: 6-OHDA 20 μM, 24 h, toxin alone
Procedure: This study investigated the neuroprotective effect of the plant extract of the invention on rat primary mesencephalic cultures following exposure to 6OHDA. […]
The midbrains were dissociated by trypsinisation for 20 min at 37° C. (Trypsin 0.05%, EDTA 0.02% (Batch 7310713, PanBiotech). The reaction was stopped by the addition of Dulbecco's modified Eagle's medium (DMEM, Batch 9710913, PanBiotech) containing DNAase I grade II (0.1 mg/mL, Batch H131108, PanBiotech) and 10% of foetal calf serum (FCS, Batch 41Q7218K, Gibco). Cells were then mechanically dissociated by 3 passages through a 10 mL pipette. Cells were then centrifuged at 180×g for 10 min at +4° C. on a layer of BSA (3.5%) in L15 medium. The supernatant was discarded and the cell pellets were re-suspended in a defined culture medium consisting of Neurobasal (Batch 1576979, Invitrogen, France) supplemented with 2% of B27 (Batch 1589889, Invitrogen), 2 mM of L-glutamine (Batch 8150713, PanBiotech), 2% of PS solution, 10 ng/mL of Brain-derived neurotrophic factor (Batch H140108, PanBiotech) and 1 ng/mL of Glial-Derived Neurotrophic Factor (Batch H130917, Pan Biotech) Viable cells were counted in a Neubauer cytometer using the trypan blue exclusion test. […]

[2] = tested on: TH positive dopaminergic neurons of primary mesencephalic culture; assay: Neuroprotective effect on TH positive dopaminergic neuron survival following exposure to MPP+; conditions: MPP+ 4 μM, 48 h
Procedure: This study investigated the neuroprotective effect of the plant extract of the invention on rat primary mesencephalic cultures following exposure to 1-methyl-4-phenyl pyridinium (MPP^+).
In such assay, […] (BDNF) was used as standard molecule.
(§1) The mesencephalic neurons were cultivated as in preceding example.
On day 6 of culture, the medium was removed and fresh medium was added, without or with MPP^+ (Batch 092M4729V, Sigma, France) at 4 μM diluted in control medium. 6 wells per condition were assessed.
(§2) The cells were fixed, washed, permeabilized and non-specific sites were blocked.
The immunolabeled cultures were automatically examined with ImageXpress (Molecular Devices, United Kingdom) equipped with a LED at ×10 magnification. For each condition (6 culture wells), 20 automatically fields per well (representing ˜80% of the total surface of the well) were analyzed. The total number of TH neurons was automatically analyzed using MetaXpress software (Molecular Devices).
Data were expressed in percentage of control conditions (no MPP^+=100%) in order to express the MPP^+ injury. All values were expressed as mean+/−SEM (s.e.mean) of the 6 wells with statistical analyses on the different conditions (ANOVA followed by Dunnett's test when allowed, using GraphPad Prism software). […]

[3] = tested on: TH positive dopaminergic neurons of primary mesencephalic culture; assay: Neuroprotective effect on TH positive dopaminergic neuron survival following exposure to rotenone; conditions: rotenone 10 nM, 24 hours, toxin alone
Procedure: as §1, §2
For each condition (6 culture wells), 20 automatically fields per well (representing ˜80% of the total surface of the well) were analyzed. The total number of TH neurons was automatically analyzed using MetaXpress software (Molecular Devices).

NCCc1cc(O)c(O)cc1O [Composition 6-OHDA, 6-hydroxydopamine]
cell death of TH positive neurons induced by the toxin [1]: > 25%

C[n+]1ccc(-c2ccccc2)cc1 [MPP^+, 1-methyl-4-phenyl pyridinium]
cell death of TH positive neurons induced by the toxin ([2]; toxin alone): > 35% and > 30%

C=C(C)[C@H]1Cc2c(ccc3c2O[C@@H]2COc4cc(OC)c(OC)cc4[C@@H]2C3=O)O1 [Rotenone, rotenone]
cell death of TH positive neurons induced by the toxin [3]: ~40%

B1: BDNF: Brain Derived Growth Factor (BDNF) used as standard molecule (protein, UniProt P23560 19-247, looked up)
Neurotrophic factor BDNF …: APMKEANIRGQGGLAYPGVRTHGTLESVNGPKAGSRGLTSLADTFEHVIEELLDEDQKVRPNEENNKDADLYTSRVMLSSQVPLEPPLLFLLEEYKNYLDAANMSMRVRRHSDPARRGELSVCDSISEWVTAADKKTAVDMSGGTVTVLEKVPVSKGQLKQYFYETKCNPMGYTKEGCRGIDKRHWNSQCRTTQSYVRALTMDSKKRIGWRFIRIDTSCVCTLTIKRGR
protection from MPP+ induced injuries ([2]; 50 ng/mL): able to significantly protect cells
